Active and inactive are the calls of the source. The rule behind the calls is not given here.
Key:
A549 [1] = assay: Cell cycle arrest in human A549 cells assessed as accumulation at S phase at 10 uM after 24 hrs by acridine orange staining-based flow cytometry (Rvb =26.89 +/- 2.997 %); format: functional
A549 [2] = assay: Effect on CREB1 gene expression in human A549 cells at 5 to 25 uM after 24 hrs by RT-PCR analysis; format: functional, cell-based
[3] = target: Dual specificity mitogen-activated protein kinase kinase; MEK1/2 (Homo sapiens) (UniProt P36507+Q02750); assay: Inhibition of MEK1/2 phosphorylation in human A549 cells after 24 hrs by Western blot analysis; format: cell-based
A549 [4] = assay: Cell cycle arrest in human A549 cells assessed as accumulation at G0/G1 phase at 10 uM after 24 hrs by acridine orange staining-based flow cytometry (Rvb =44.85 +/- 0.866 %); format: functional
A549 [5] = assay: Cell cycle arrest in human A549 cells assessed as accumulation at S phase at 25 uM after 24 hrs by acridine orange staining-based flow cytometry (Rvb =26.89 +/- 2.997 %); format: functional
[6] = Antiproliferative activity against human astrocytes; format: cell-based; details: astrocyte
A549 [7] = assay: Effect on p27/Kip protein expression in human A549 cells at 1 to 100 uM after 24 hrs by Western blot analysis; format: functional, cell-based
Rhabdomyosarcoma cell = assay: Antiproliferative activity against human rhabdomyosarcoma cells; format: functional, cell-based
A549 [8] = assay: Cell cycle arrest in human A549 cells assessed as accumulation at G2/M phase at 10 uM after 24 hrs by acridine orange staining-based flow cytometry (Rvb =16.66 +/- 0.622 %); format: functional
A549 [9] = assay: Cell cycle arrest in human A549 cells assessed as accumulation at G2/M phase at 50 uM after 24 hrs by acridine orange staining-based flow cytometry (Rvb =16.66 +/- 0.622 %); format: functional
Medulloblastoma cell = assay: Antiproliferative activity against human medulloblastoma cells; format: functional
[10] = Antiproliferative activity against human skin fibroblast
[11] = target: T1, Mitogen-activated protein kinase; ERK1/ERK2 (Homo sapiens) (UniProt P27361+P28482); assay: Inhibition of ERK1/2 phosphorylation in human A549 cells after 24 hrs by Western blot analysis; format: cell-based
[12] = target: T1, Mitogen-activated protein kinase; ERK1/ERK2 (Homo sapiens); assay: Inhibition of PMA-stimulated ERK1/2 phosphorylation in human A549 cells after 24 hrs by Western blot analysis; format: cell-based
A549 [13] = assay: Cell cycle arrest in human A549 cells assessed as accumulation at S phase at 50 uM after 24 hrs by acridine orange staining-based flow cytometry (Rvb =26.89 +/- 2.997 %); format: functional
Homo sapiens [14] = organism: Homo sapiens; assay: Antiproliferative activity against human lung adenocarcinoma cells; format: functional
A549 [15] = assay: Effect on total ERK1/2 levels in human A549 cells by Western blot analysis in presence of PMA; format: functional, cell-based
Hepatocyte = assay: Antiproliferative activity against human hepatocytes; format: cell-based
[16] = target: T1, Mitogen-activated protein kinase; ERK1/ERK2 (Homo sapiens); assay: Inhibition of ERK1/2 phosphorylation in human A549 cells at 25 uM by Western blot analysis; format: cell-based; details: TDE = time-dependent effect
Glioma cell = assay: Antiproliferative activity against human glioma cells; format: functional, cell-based
A549 [17] = assay: Cell cycle arrest in human A549 cells after 24 hrs by acridine orange staining-based flow cytometry; format: functional
A549 [18] = assay: Inhibition of Rsk90 phosphorylation in human A549 cells after 24 hrs by Western blot analysis; format: cell-based
A549 [19] = assay: Cell cycle arrest in human A549 cells assessed as accumulation at G0/G1 phase at 50 uM after 24 hrs by acridine orange staining-based flow cytometry (Rvb =44.85 +/- 0.866 %); format: functional
A549 [20] = assay: Cell cycle arrest in human A549 cells assessed as accumulation at G2/M phase at 25 uM after 24 hrs by acridine orange staining-based flow cytometry (Rvb =16.66 +/- 0.622 %); format: functional
Homo sapiens [21] = organism: Homo sapiens; assay: Antiproliferative activity against human colon adenocarcinoma cells; format: functional
[22] = target: T1, Mitogen-activated protein kinase; ERK1/ERK2 (Homo sapiens); assay: Inhibition of ERK1/2 phosphorylation in human A549 cells assessed as peak effect time by Western blot analysis; format: cell-based
A549 [23] = assay: Effect on p21Waf1/Cip1 protein expression in human A549 cells at 1 to 100 uM after 24 hrs by Western blot analysis; format: functional, cell-based
A549 [24] = assay: Effect on cyclinD1 protein expression in human A549 cells at 1 to 100 uM after 24 hrs by Western blot analysis; format: functional, cell-based
A549 [25] = assay: Inhibition of CREB phosphorylation in human A549 cells after 24 hrs by Western blot analysis; format: cell-based
A549 [26] = assay: Effect on ERK1 gene expression in human A549 cells at 5 to 25 uM after 24 hrs by RT-PCR analysis; format: functional, cell-based
Homo sapiens [27] = organism: Homo sapiens; assay: Antiproliferative activity against human neuroblastoma cells; format: functional, cell-based
A549 [28] = assay: Cell cycle arrest in human A549 cells assessed as accumulation at G0/G1 phase at 25 uM after 24 hrs by acridine orange staining-based flow cytometry (Rvb =44.85 +/- 0.866 %); format: functional
A549 [29] = assay: Effect on total ERK1/2 levels in human A549 cells by Western blot analysis; format: functional, cell-based

T1 sequence (P27361 whole entry, looked up): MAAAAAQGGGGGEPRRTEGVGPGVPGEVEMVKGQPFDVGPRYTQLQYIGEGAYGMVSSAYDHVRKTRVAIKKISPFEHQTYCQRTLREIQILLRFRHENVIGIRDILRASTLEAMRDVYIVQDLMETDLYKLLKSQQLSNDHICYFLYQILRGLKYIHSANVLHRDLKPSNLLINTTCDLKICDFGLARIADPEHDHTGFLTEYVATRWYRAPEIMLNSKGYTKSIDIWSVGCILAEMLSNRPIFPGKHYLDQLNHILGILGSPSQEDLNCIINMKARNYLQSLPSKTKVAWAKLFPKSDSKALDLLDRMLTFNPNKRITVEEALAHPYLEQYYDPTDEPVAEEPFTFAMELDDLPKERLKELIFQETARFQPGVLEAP
T1 sequence (P28482 whole entry, looked up): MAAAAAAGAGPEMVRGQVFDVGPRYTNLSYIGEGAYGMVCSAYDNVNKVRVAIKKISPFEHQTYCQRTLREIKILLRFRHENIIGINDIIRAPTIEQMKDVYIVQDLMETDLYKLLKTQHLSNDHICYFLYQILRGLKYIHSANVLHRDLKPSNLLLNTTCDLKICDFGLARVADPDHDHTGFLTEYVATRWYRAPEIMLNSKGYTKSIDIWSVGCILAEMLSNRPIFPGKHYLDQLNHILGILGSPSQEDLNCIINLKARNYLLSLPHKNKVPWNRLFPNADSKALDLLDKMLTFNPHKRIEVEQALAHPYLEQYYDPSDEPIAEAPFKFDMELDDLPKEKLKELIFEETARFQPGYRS
Dual specificity mitogen-activated protein kinase kinase; MEK1/2 (Homo sapiens), sequence (P36507 whole entry, looked up): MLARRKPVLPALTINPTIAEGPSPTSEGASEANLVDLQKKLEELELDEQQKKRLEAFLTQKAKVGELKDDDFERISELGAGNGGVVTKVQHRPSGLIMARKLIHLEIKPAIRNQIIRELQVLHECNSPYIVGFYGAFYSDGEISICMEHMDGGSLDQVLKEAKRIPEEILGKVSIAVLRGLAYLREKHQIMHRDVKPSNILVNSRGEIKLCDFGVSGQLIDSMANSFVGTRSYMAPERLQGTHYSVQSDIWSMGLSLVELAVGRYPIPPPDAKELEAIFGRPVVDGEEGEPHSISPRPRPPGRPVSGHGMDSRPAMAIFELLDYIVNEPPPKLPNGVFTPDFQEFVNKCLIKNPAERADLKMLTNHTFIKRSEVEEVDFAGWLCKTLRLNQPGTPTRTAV
Dual specificity mitogen-activated protein kinase kinase; MEK1/2 (Homo sapiens), sequence (Q02750 whole entry, looked up): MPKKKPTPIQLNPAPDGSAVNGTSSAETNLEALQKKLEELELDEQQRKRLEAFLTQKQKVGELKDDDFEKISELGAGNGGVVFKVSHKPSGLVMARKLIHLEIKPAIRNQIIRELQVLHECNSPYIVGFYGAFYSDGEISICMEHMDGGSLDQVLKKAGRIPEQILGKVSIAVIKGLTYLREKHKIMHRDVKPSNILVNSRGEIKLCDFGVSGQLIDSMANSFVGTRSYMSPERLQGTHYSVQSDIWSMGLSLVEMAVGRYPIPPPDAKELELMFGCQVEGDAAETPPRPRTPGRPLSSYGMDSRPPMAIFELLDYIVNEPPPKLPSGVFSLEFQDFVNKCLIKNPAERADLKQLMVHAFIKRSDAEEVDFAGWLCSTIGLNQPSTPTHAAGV

With `Oc1ccc(-c2nnc(Nc3ccc(F)cc3)s2)c(O)c1` the Activity (A549 [1]) was 22.62%, the Activity (A549 [2]) was “inactive” and the inhibition [3] was “Active”. For the same compound, the Activity (A549 [4]) was 43.4%, the Activity (A549 [5]) was 19.84% and the Activity [6] was “Non-toxic”. The Activity (A549 [7]) was “inactive”, the Activity (Rhabdomyosarcoma cell) was “Active” and the Activity (A549 [8]) was 12.89%. For the same compound, the Activity (A549 [9]) was 5.403%, the Activity (Medulloblastoma cell) was “Active” and the Activity [10] was “Non-toxic”. The inhibition [11] was “Dose-dependent effect”, the inhibition [12] was “Dose-dependent effect” and the Activity (A549 [13]) was 11.31%. The Activity (Homo sapiens [14]) was “Active”, the Activity (A549 [15]) was “inactive” and the Activity (Hepatocyte) was “Non-toxic”. For the same compound, the inhibition [16] was “tde”, the Activity (Glioma cell) was “Active” and the Activity (A549 [17]) was “Dose-dependent effect”. The inhibition (A549 [18]) was “Active”, the Activity (A549 [19]) was 57.4% and the Activity (A549 [20]) was 11.03%. The Activity (Homo sapiens [21]) was “Active”, the TIME [22] was 24 h and the Activity (A549 [23]) was “inactive”. For the same compound, the Activity (A549 [24]) was “inactive”, the inhibition (A549 [25]) was “Active” and the Activity (A549 [26]) was “inactive”. The Activity (Homo sapiens [27]) was “Active”, the Activity (A549 [28]) was 46.97% and the Activity (A549 [29]) was “inactive”.
